Data as given in patent US20200129592A1, “COMPOSITION FOR TREATING STROKE AND METHOD FOR SCREENING THE SAME” (CHA University Industry-Academic Cooperation Foundation, priority 2018, published 2020).

Experiments:
Assay type in all cases: cell-based, mouse
Raw 264.7 cells [1] = experiment: Inhibition of p-CREB with KG501, IL-1ra ELISA in Raw 264.7 cells; details: KG501 2, 5, 10 μM pretreatment 45 min, then hUMSCs-CM with LPS 200 ng/ml
Description: Raw 264.7 cells (2×10^5) were seeded onto the plate, and incubated for 24 hrs. The cells were pretreated with a serum-free medium containing KG501 (2 μM, 5 μM, and 10 μM, Sigma-Aldrich, MO) for 45 min. The supernatant was then removed from the dish, and the cells were treated with hUMSCs-CM in the presence of LPS (200 ng/ml). The supernatant was used for IL-1ra ELISA analysis. Independent experiments were triplicated on different days.
(§1) IL-1β and IL-1ra levels were measured in supernatants of Raw 264.7 cells using commercially available ELISA kits (IL-1β Quantikine ELISA and IL-1 ra Quantikine ELISA kits, R&D Systems, MN).

Raw 264.7 cells [2] = experiment: IL-1β and IL-1ra ELISA in supernatants of Raw 264.7 cells; details: LPS alone
Description: A mouse macrophage cell line (Raw 264.7 cell, ATCC, VA) was cultured according to the manufacturer's instructions. The raw 264.7 cells were treated with either LPS (100 ng/ml, Sigma-Aldrich, MO) or LPS together with hUMSCs-CM for 24 hrs, and the supernatants were isolated from each treated group.
as §1

Raw 264.7 cells [3] = experiment: Knockdown of CREB by siRNA in Raw 264.7 cells
Description: After Raw 264.7 cells (2×10^5) were plated in 6-well plates, transfection with 100 nM of CREB siRNA (siCREB) and control (siCtr) was performed for 48 hrs using Lipofectamine 3000 reagent (Invitrogen, MA) according to the manufacturer's instructions. The siCREB (sense: 5′-[…]-3″, antisense: 5′-[…]-3″) and siCtr (sense: 5-ACGUGACACGUUCGGAGAA-3′, antisense: 5′-UUCUCCGAACGUGUCACGU-3″) were purchased from Genolution Pharmaceuticals, Inc. After transfection, the RNA and proteins were isolated and used for PCR and western blotting, respectively.

O=C(Nc1ccc(Cl)cc1)c1cc2ccccc2cc1OP(=O)(O)O [KG501]
increase of IL-1ra expression by hUMSCs-CM treatment (Raw 264.7 cells [1]): inhibited in a CREB inhibitor dose-dependent manner

lipopolysaccharide [LPS]
IL-1ra level in Raw 264.7 cells (Raw 264.7 cells [2]): strongly elevated | IL-1β level in Raw 264.7 cells (Raw 264.7 cells [2]): strongly elevated

siCREB: CREB siRNA, sense 5′-CCACAAAUCAGAUUAAUUUUU-3″, antisense 5′-AAAUUAAUCUGAUUUGUGGUU-3″ (chemistry not given here)
enhanced expression of IL1RN induced by hUMSCs-CM (Raw 264.7 cells [3]; LPS-stimulated Raw 264.7 cells, knockdown of CREB): reduced | expression of IL-1ra protein in Raw 264.7 cells (Raw 264.7 cells [3]; transfection with 100 nM siCREB, 48 hrs): reduced
